Test results from ChEMBL document CHEMBL2375223, “Disulfide linked pyrazole derivatives inhibit phagocytosis of opsonized blood cells” (Bioorg Med Chem Lett, 2013).
The source made the active and inactive calls. No cut-off for these calls is given here.

Tests used:
[1] = molecular target: High affinity immunoglobulin gamma Fc receptor I (Homo sapiens) (UniProt P12314); assay: Inhibition of FCgamma receptor in human PBMC assessed as inhibition of opsonized RBC phagocytosis at 5 uM incubated for 1 hr prior to RBC addition measured after 2 hrs by monocyte monolayer assay relative to control
PBMC = assay: Induction of apoptosis in human PBMC at 5 uM assessed as apoptotic index after 1 hr by Annexin V-APC/propidium iodide staining-based FACS analysis relative to IVIG; type: functional
[2] = molecular target: High affinity immunoglobulin gamma Fc receptor I (Homo sapiens) (UniProt P12314); assay: Inhibition of FCgamma receptor in human PBMC assessed as inhibition of opsonized RBC phagocytosis at 1 mM incubated for 1 hr prior to RBC addition measured after 2 hrs by monocyte monolayer assay relative to control

Sequence of High affinity immunoglobulin gamma Fc receptor I (Homo sapiens) (P12314 whole entry): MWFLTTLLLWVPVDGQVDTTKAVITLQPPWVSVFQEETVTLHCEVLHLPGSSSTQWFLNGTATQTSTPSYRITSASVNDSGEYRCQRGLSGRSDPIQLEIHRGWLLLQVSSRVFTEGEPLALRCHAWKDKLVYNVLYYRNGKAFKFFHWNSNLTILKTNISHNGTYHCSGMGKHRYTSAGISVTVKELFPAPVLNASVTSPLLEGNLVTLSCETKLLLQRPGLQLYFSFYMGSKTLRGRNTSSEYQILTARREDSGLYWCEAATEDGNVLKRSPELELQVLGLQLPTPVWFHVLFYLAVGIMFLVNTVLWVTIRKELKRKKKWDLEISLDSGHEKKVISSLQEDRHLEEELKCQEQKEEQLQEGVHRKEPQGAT

Row | Compound | inhibition [1] | inhibition [2] | fold change (FC) (PBMC)
1 | Cc1nn(-c2ccccc2)c(S)c1C(=O)c1ccno1 | inactive |  | 
2 | Cc1nn(-c2ccccc2)c(S)c1C(=O)c1ccccc1 | 0% | inactive | 1.29
3 | Cc1cc(SSc2cc(C)nn2-c2ccccc2)n(-c2ccccc2)n1 | 43% |  | 2.78

Continued, in another order:

Row | inhibition [1] | inhibition [2] | Compound | fold change (FC) (PBMC)
4 | 19% |  | Cc1nn(-c2ccccc2)c(SSc2c(C(=O)c3cccs3)c(C)nn2-c2ccccc2)c1C(=O)c1cccs1 | 0.69
5 | 20% |  | Cc1nn(-c2ccccc2)c(SSc2c(C(=O)N3CCOCC3)c(C)nn2-c2ccccc2)c1C(=O)N1CCOCC1 | 1.88
6 | 34% |  | Cc1nn(-c2ccccc2)c(SSc2c(C(=O)N3CCCCC3)c(C)nn2-c2ccccc2)c1C(=O)N1CCCCC1 | 1.87
7 | 22% |  | Cc1nn(-c2ccccc2)c(SSc2c(C(=O)c3ccccc3)c(C)nn2-c2ccccc2)c1C(=O)c1ccccc1 | 1.04
